We go through 12 compounds from patent US7754709B2 (Solvay Pharmaceuticals BV, priority 2003, dated 2010).

SMILES strings stand for the structures. Where “and” joins values, the source holds several entries; their conditions need not be identical. Equal values may be shown once.

Assay type in all cases: cell-based
Experiment [1] has as its target T1, 17β-hydroxysteroid dehydrogenase type 1 (Homo sapiens, UniProt P14061).
T1 construct: expressed in transfected cells; host or cells: MCF-7
T1 sequence (P14061 1-328): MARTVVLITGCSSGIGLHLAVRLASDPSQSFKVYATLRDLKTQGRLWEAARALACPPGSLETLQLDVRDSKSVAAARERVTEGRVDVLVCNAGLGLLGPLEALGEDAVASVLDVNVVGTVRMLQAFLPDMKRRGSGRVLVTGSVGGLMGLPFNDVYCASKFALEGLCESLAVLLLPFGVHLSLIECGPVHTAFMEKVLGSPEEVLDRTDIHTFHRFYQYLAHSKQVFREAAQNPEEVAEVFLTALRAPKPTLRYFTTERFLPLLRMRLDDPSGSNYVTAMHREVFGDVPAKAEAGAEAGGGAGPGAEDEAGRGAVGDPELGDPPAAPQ
Nature of the experiment: Inhibition of 17β-HSD type 1 in MCF-7 cells stably expressing the isoenzyme (HPLC, tritium labeled estrone). The settings on record: 2 nM estrone; for inhibition at 1 µM: MCF7, 1 μM compound; for inhibition at 1 µM / inhibition at 10 µM: read-out: % Inhibition of the 17β-HSD enzyme type 1 (HSD1); for inhibition at 10 µM: MCF7, 10 μM compound. The text has this:
(§1) Biological Testing Materials and Methods 1. Inhibition of the 17β-hydroxysteroid dehydrogenase type 1, type 2 and type 3 enzyme
(§2) The compounds were screened in respect of 17β-HSD enzyme activity in vitro on established M CF-7 cell lines, each stably expressing one of the respective 17β-HSD isoenzymes. The interconversion of substrate by each isoenzyme and the 17β-HSD inhibiting activity of chemical compounds in these cell lines were detected by HPLC system.
(§3) Varying amounts of the test compounds were incubated in the growth medium of the 17β-HSD expressing cells together tritium labeled substrate (2 nM estrone for 17β-HSD type 1; 2 nM estradiol for 17β-HSD type 2; and 2 nM androstenedione for 17β-HSD type 3). The medium samples were removed after exact incubation time and the reaction is stopped by trichloroacetic acid (TCA). The samples were analyzed by HPLC-coupled flow scintillation analysis.
(§4) For each enzyme type, the HSD-inhibiting activity of an individual test compound was calculated by comparing the conversion of a control sample without any test compound (referred to as “Negative Control”) to the (reduced) conversion of the test sample containing the particular compound to be tested (referred to as “Test Sample”).
(§5) Two concentrations of each compound were used. The number of the compound refers to the numbers indicated in the Experimental Section.

Experiment [2] has as its target T2, 17β-hydroxysteroid dehydrogenase type 2 (Homo sapiens, UniProt P37059).
T2 construct: expressed in transfected cells; host or cells: MCF-7
T2 sequence (P37059 1-387): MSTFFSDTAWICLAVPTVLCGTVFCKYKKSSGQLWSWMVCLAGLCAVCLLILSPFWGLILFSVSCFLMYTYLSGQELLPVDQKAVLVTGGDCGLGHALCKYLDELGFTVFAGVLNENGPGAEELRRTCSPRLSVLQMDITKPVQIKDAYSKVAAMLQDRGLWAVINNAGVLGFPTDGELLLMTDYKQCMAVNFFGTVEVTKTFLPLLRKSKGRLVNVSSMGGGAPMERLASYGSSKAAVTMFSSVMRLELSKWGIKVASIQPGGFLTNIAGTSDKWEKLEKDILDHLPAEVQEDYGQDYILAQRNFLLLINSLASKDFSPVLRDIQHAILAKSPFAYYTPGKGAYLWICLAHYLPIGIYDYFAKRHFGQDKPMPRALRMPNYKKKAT
Nature of the experiment: Inhibition of 17β-HSD type 2 in MCF-7 cells stably expressing the isoenzyme (HPLC, tritium labeled estradiol). Particulars: 2 nM estradiol, read-out: % Inhibition of the 17β-HSD enzyme type 2 (HSD2); for inhibition at 1 µM: MCF7, 1 μM compound; for inhibition at 10 µM: MCF7, 10 μM compound.
Source text: as §1, §2, §3, §4, §5

The target of experiment [3] is T3, 17β-hydroxysteroid dehydrogenase type 3 (Homo sapiens, UniProt P37058).
T3 construct: expressed in transfected cells; host or cells: MCF-7
T3 sequence (P37058 1-310): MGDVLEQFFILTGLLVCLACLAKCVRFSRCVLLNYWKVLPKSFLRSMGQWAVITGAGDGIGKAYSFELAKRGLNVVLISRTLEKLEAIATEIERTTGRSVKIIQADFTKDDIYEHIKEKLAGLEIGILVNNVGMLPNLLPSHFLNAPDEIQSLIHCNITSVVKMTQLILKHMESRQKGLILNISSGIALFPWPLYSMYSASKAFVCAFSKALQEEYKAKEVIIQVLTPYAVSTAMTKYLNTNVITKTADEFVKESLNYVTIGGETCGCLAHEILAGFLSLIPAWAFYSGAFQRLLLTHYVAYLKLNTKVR
Description: Inhibition of 17β-HSD type 3 in MCF-7 cells stably expressing the isoenzyme (HPLC, tritium labeled androstenedione). The settings on record: 2 nM androstenedione; for inhibition at 10 µM: MCF7, 10 μM compound; for inhibition at 10 µM / inhibition at 1 µM: read-out: % Inhibition of the 17β-HSD enzyme type 3 (HSD3); for inhibition at 1 µM: MCF7, 1 μM compound.
Source text: as §1, §2, §3, §4, §5

The inhibition is the relative decrease from the control value, in per cent. For `O=CC1=C(Cl)c2sc3nc4n(c(=O)c3c2CC1)CCCCCC4` [Compound 4b, 4-Chloro-1,2,3,7,8,9, 10,11,12-octahydro[1]benzothieno[2′,3′:4,5]pyrimido-[1,2-a]-azocin-14-one-4-carboxyaldehyde], the “% Inhibition of the 17β-HSD enzyme type 1 (HSD1)” value in experiment [1] (1 μM compound) came out at 31.2%; in experiment [1] (10 μM compound) it was 80.1%. Besides, the figures for the inhibition at 1 µM in experiment [1] and in experiment [2] were 36.9% and 3.5%, respectively. Moreover, the figures for the inhibition at 10 µM in experiment [1], in experiment [2] and in experiment [3] were 82.1%, 1.5% and 42.1%, respectively. For the same compound, the “% Inhibition of the 17β-HSD enzyme type 3 (HSD3)” value in experiment [3] (1 μM compound) is 5.3% and 14.3%; in experiment [3] (10 μM compound), 43.9%.
Take `Cn1cnc2sc3c(c2c1=O)CCC(C=O)=C3Cl` [Compound 4e, 8-Chloro-5,6-dihydro-3-methyl[1]benzothieno[2,3-d]pyrimidin-4(3H)-one-7-carboxyaldehyde]: the “% Inhibition of the 17β-HSD enzyme type 1 (HSD1)” value in experiment [1] (1 μM compound) is listed as 24.6%; in experiment [1] (10 μM compound), 52.1%. In addition, the results for the inhibition at 1 µM in experiment [1], in experiment [2] and in experiment [3] were 23.5%, 9.6% and 9.8%, respectively. Also, the results for the inhibition at 10 µM in experiment [1], in experiment [2] and in experiment [3] were 44.4%, 28.3% and 14.2%, respectively. In addition, the “% Inhibition of the 17β-HSD enzyme type 3 (HSD3)” value is listed as 11.1% in experiment [3] (1 μM compound) and 17.3% in experiment [3] (10 μM compound).
For `CCSC1=C(C=O)CCc2c1sc1nc3n(c(=O)c21)CCCCC3` [Compound 5b, 1,2,7,8,9,10,11,13-Octahydro-13-oxo-4-(ethylthio)[1]benzothieno[2′,3′:4,5]-pyrimido-[1,2-a]azepine-3-carboxaldehyde], the inhibition at 1 µM in experiment [1] was found to be 66.1%; in experiment [2], 19.7%; in experiment [3], 43.4%. The inhibition at 10 µM in experiment [1] came to 100%; in experiment [2] it was 25.2%; in experiment [3], 100%.
In the case of `CCCSC1=C(C=O)CCc2c1sc1nc3n(c(=O)c21)CCCCC3` [Compound 5c, 1,2,7,8,9,10,11,13-Octahydro-13-oxo-4-(propylthio)[1]benzothieno[2′,3′:4,5]-pyrimido-[1,2-a]azepine-3-carboxaldehyde], the inhibition at 1 µM in experiment [1] turned out to be 74%; in experiment [2] it was 8.9%; in experiment [3], 10.5%. The inhibition at 10 µM in experiment [1] was found to be 100%; in experiment [2], 18.6%; in experiment [3], 100%.
For `CCCCSC1=C(C=O)CCc2c1sc1nc3n(c(=O)c21)CCCCC3` [Compound 5d, 1,2,7,8,9,10,11,13-Octahydro-13-oxo-4-(butylthio)[1]benzothieno[2′,3′:4,5]-pyrimido-[1,2-a]azepine-3-carboxaldehyde], the results for the inhibition at 1 µM in experiment [1], in experiment [2] and in experiment [3] were 54.1%, 8.2% and 32.6%, respectively. Also, the inhibition at 10 µM in experiment [1] was 100%; in experiment [2], 15.1%; in experiment [3], 72%.
As for `CC(C)SC1=C(C=O)CCc2c1sc1nc3n(c(=O)c21)CCCCC3` [Compound 5e, 1,2,7,8,9,10,11,13-Octahydro-13-oxo-4-(isopropylthio)[1]benzothieno[2′,3′:4,5]-pyrimido-[1,2-a]azepine-3-carboxaldehyde], the inhibition at 1 µM in experiment [1] turned out to be 71.9%; in experiment [2], 8.4%; in experiment [3], 50.8%. Besides, the inhibition at 10 µM in experiment [1] worked out at 100%; in experiment [2], 20.2%; in experiment [3] it was 86.3%.
Consider `CCCSC1=C(C=O)CCc2c1sc1nc3n(c(=O)c21)CCCCCC3` [Compound 5i, 1,2,7,9,10,11,12,14-octahydro-14-oxo-4-(propylthio)-8H-[1]benzothieno[2′,3′:4,5]pyrimido-[1,2-a]-azocine-3-carbaldehyde], for which the inhibition at 1 µM in experiment [1] came to 43.9%; in experiment [2], 11.6%; in experiment [3], 22.5%. In addition, the values for the inhibition at 10 µM in experiment [1], in experiment [2] and in experiment [3] were 100%, 17.3% and 80.5%, respectively.
As to `O=c1c2c3c(sc2nc2n1CCCCC2)C(Sc1ccccc1)=C(CO)CC3` [Compound 6a, 1,2,7,8,9,10,11,13-Octahydro-13-oxo-4-(phenylthio)[1]benzothieno[2′,3′:4,5]-pyrimido-[1,2-a]azepine-3-hydroxymethyl], the figures for the inhibition at 1 µM in experiment [1], in experiment [2] and in experiment [3] were 51.8%, 11.6% and 45.9%, respectively. Also, the inhibition at 10 µM in experiment [1] was 100%; in experiment [2] it was 42.5%; in experiment [3], 48.9%.
As for `CCCSC1=C(CO)CCc2c1sc1nc3n(c(=O)c21)CCCCC3` [Compound 6c, 1,2,8,9,10,11-Hexahydro-3-(hydroxymethyl)-4-(propylthio)-[1]benzothieno[2′,3′:4,5]-pyrimido-[1,2-a]azepine-13(7H)-one], the figures for the inhibition at 1 µM in experiment [1], in experiment [2] and in experiment [3] were 47.7%, 37.5% and 20.4%, respectively. Moreover, the results for the inhibition at 10 µM in experiment [1], in experiment [2] and in experiment [3] were 82.4%, 36.7% and 38.1%, respectively.
As to `O=CC1=C(Cl)c2sc3nc4n(c(=O)c3c2CC1)CCCCCC4C=O` (stereo not shown) [Compound 11, 4-Chloro-1,2,7,9, 10,11,12,14-octahydro-14-oxo-8H-[1]benzothieno[2′,3′:4,5]pyrimido-[1,2-a]-azocine-3,7-dicarbaldehyde], the inhibition at 1 µM was 4.7% in experiment [1], 16.7% in experiment [2] and 7.3% in experiment [3]. The results for the inhibition at 10 µM in experiment [1], in experiment [2] and in experiment [3] were 51.1%, 28.3% and 31.7%, respectively.
For `O=Cc1ccc2c(sc3nc4n(c(=O)c32)CCCCC4)c1Sc1ccccc1` [Compound 12, 7,8,9,10,11,13-Hexahydro-13-oxo-4-(phenylthio)-[1]benzothieno[2′,3′:4,5]pyrimido[1,2-a]azepine-3-carbaldehyde], the inhibition at 1 µM in experiment [1] came to 15.1%; in experiment [2], 7%; in experiment [3] it was 8.6%. Moreover, the figures for the inhibition at 10 µM in experiment [1], in experiment [2] and in experiment [3] were 87.9%, 8.9% and 25.5%, respectively.
Consider `O=c1c2c3c(sc2nc2n1CCCCCC2)C(O)CCC3` (stereo not shown) [Compound 13, 1,2,3,4,7,8,9,10,11,12-Decahydro-4-hydroxy-14H-[1]benzothieno[2′,3′:4,5]pyrimido[1,2-a]azocin-14-one], for which the inhibition at 1 µM is 5% in experiment [1], 1.7% in experiment [2] and -2.2% in experiment [3]. Further, the inhibition at 10 µM turned out to be 20% in experiment [1], 18.6% in experiment [2] and 11.7% in experiment [3].
